Earlier results in US20140100178A1, “COMPOSITION AND METHODS FOR SITE-SPECIFIC DRUG DELIVERY TO TREAT MALARIA AND OTHER LIVER DISEASES” (priority 2012, published 2014).

Experiments:
[1] = in vivo
[2] = prophylactic doses (0.5 mg base/kg/day); children and men with normal G6PD activity; toxicity associated with >10%

For `COc1cc(NC(C)CCCN)c2ncccc2c1` (centres unmarked) [primaquine, Primaquine], the half life [1] is given as roughly 4 h and the mean methemoglobin rates [2] is given as 5.8%.
